Assay results taken from patent US8846115B2, “Anti-inflammatory cyclooxygenase inhibitors” (Metaproteomics, LLC, priority 2001, dated 2014).
Like-named read-outs stand apart in the source and are kept apart here.

Solubility (aqueous solution that can be made) (pH 7.5): 20 % aqueous solution
Solubility (aqueous solution that can be made) (pH 9): 30 % aqueous solution
Substance: iso-alpha acids
